Columns and labels:
Surinam grass = test: Test B pre-/postemergence herbicide test; format: in vivo, Urochloa decumbens
How it was run: (§1)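 Evaluation is visual, comparing treated with control plants on a scale where 0 means no effect and 100 means full control. Treatments were preemergence, or postemergence on seedlings 2–18 cm tall, and held 13–15 days in the greenhouse.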

velvetleaf = test: Test B pre-/postemergence herbicide test; format: in vivo, Abutilon theophrasti
How it was run: as §1

cocklebur = test: Test B pre-/postemergence herbicide test; format: in vivo, Xanthium strumarium
How it was run: (§2)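 Seeds were planted and treated preemergence with compounds formulated in a non-phytotoxic solvent mixture containing surfactant, while plants at the 1- to 4-leaf stage (2 to 18 cm) received postemergence sprays. Flooded paddy plants were grown to the 2-leaf stage. After 13 to 15 days in a greenhouse, injury was visually rated 0–100 against untreated controls.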

ducksalad [1] = test: Test B flooded paddy test; format: in vivo, Heteranthera limosa; conditions: 1000 g ai/ha, scale 0 to 100 (0 no effect, 100 complete control)
How it was run: (§3)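 Postemergence plants were sprayed with formulated test chemicals at 2 to 18 cm height (1- to 4-leaf stage); paddy species were grown to the 2-leaf stage. After 13 to 15 days in a greenhouse, injury was rated visually against untreated controls on a 0–100 scale (0 = no effect, 100 = complete control).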

lambsquarters = test: Test B pre-/postemergence herbicide test; format: in vivo, Chenopodium album
How it was run: as §1

blackgrass = test: Test B postemergence herbicide test; format: in vivo, Alopecurus myosuroides
How it was run: as §3

[2] = test system: small flower umbrella sedge; test: Test B flooded paddy test; format: in vivo, Cyperus difformis; conditions: 1000 g ai/ha, scale 0 to 100 (0 no effect, 100 complete control)
How it was run: as §3

ducksalad [3] = test: Test C flooded paddy test; format: in vivo, Heteranthera limosa; conditions: for Plant response rating, Ducksalad: visual rating after 12 to 14 days
corn = test: Test B pre-/postemergence herbicide test; format: in vivo, Zea mays
How it was run: as §1

large crabgrass = test: Test B pre-/postemergence herbicide test; format: in vivo, Digitaria sanguinalis
How it was run: as §1

rice [4] = test: Test C flooded paddy test; format: in vivo, Oryza sativa; conditions: for Plant response rating, Rice: visual rating after 12 to 14 days
How it was run: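 Plants were grown to the 1- to 4-leaf stage (2–18 cm) and then treated postemergence, or grown to the 2-leaf stage for the flooded paddy test. They were held in a greenhouse for 12 to 14 days and then scored by eye against controls, where 0 is no effect and 100 is complete control.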

barnyardgrass [5] = test: Test B flooded paddy test; format: in vivo, Echinochloa crus-galli; conditions: 1000 g ai/ha, scale 0 to 100 (0 no effect, 100 complete control)
How it was run: as §3

wild oat = test: Test B postemergence herbicide test; format: in vivo, Avena fatua
How it was run: (§4)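 Scale 0–100: zero equals no visible effect, 100 complete control, judged by eye relative to controls. Timing: 13 to 15 days in greenhouse post-treatment. Growth stage at spraying: two leaves (paddy) or one to four leaves, 2–18 cm (postemergence).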

barnyardgrass [6] = test: Test B pre-/postemergence herbicide test; format: in vivo, Echinochloa crus-galli
How it was run: as §2

pigweed = test: Test B pre-/postemergence herbicide test; format: in vivo, Amaranthus retroflexus
How it was run: as §1

barnyardgrass [7] = test: Test C flooded paddy test; format: in vivo, Echinochloa crus-galli; conditions: for Plant response rating, Barnyardgrass: visual rating after 12 to 14 days
How it was run: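 Scoring by eye, 12–14 days post-treatment, greenhouse-held plants vs. controls; 0 no effect, 100 complete control. Sprayed at 1–4 leaves (2–18 cm); paddy barnyardgrass at 2 leaves, flooded.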

giant foxtail = test: Test B pre-/postemergence herbicide test; format: in vivo, Setaria faberi
How it was run: as §1

wheat = test: Test B postemergence herbicide test; format: in vivo, Triticum aestivum; design: key to Wheat plant response rating: 0 = no effect, 100 = complete control
How it was run: as §4

morningglory = test: Test B pre-/postemergence herbicide test; format: in vivo, Ipomoea coccinea
How it was run: as §2

[8] = test system: smallflower umbrella sedge; test: Test C flooded paddy test; format: in vivo, Cyperus difformis; conditions: for Plant response rating, Sedge, Umbrella: visual rating after 12 to 14 days
rice [9] = test: Test B pre-/postemergence herbicide test; format: in vivo, Oryza sativa; conditions: preemergence
How it was run: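 Plants compared with untreated controls 13–15 days post-treatment and given a visual 0–100 injury score. Applications: preemergence to seeds; postemergence at 1- to 4-leaf (2–18 cm); paddy species flooded, 2-leaf stage. Vehicle non-phytotoxic, surfactant included.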

rice [10] = test: Test B flooded paddy test; format: in vivo, Oryza sativa; conditions: 1000 g ai/ha, scale 0 to 100 (0 no effect, 100 complete control)
How it was run: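 Each value is a visual 0–100 response rating taken against controls 13 to 15 days after treatment in the greenhouse. Plants received formulated chemical postemergence at the 1- to 4-leaf stage or, in flooded paddy, at the 2-leaf stage.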

[11] = 125 g ai/ha; 0 = no effect, 100 = complete control; preemergence
[12] = 125 g ai/ha; visual rating, scale 0 (no effect) to 100 (complete control); postemergence
[13] = 500 g ai/ha; visual rating, 0 = no effect, 100 = complete control; preemergence
[14] = postemergence, 500 g ai/ha; scale 0 to 100, 0 is no effect, 100 is complete control
[15] = 125 g ai/ha, scale 0 to 100 (0 no effect, 100 complete control)
[16] = 250 g ai/ha, scale of 0 to 100, 0 is no effect, 100 is complete control
[17] = 500 g ai/ha, scale 0 to 100 (0 no effect, 100 complete control)
[18] = 62 g ai/ha, scale 0 to 100 (0 no effect, 100 complete control)
[19] = postemergence, 125 g ai/ha; visual rating, scale 0 (no effect) to 100 (complete control)
[20] = postemergence; 31 g ai/ha; scale 0 to 100
[21] = preemergence, 125 g ai/ha; 0 to 100 scale, 0 is no effect, 100 is complete control
[22] = 125 g ai/ha, scale of 0 to 100, 0 is no effect, 100 is complete control
[23] = 250 g ai/ha, scale 0 to 100 (0 no effect, 100 complete control)

CCN(CC)C(=O)c1ccc(F)c(NC(=O)C2CC(C(C)(C)C)=NN2CC)c1 (racemic) [Compound 308]
25: Rice plant response rating (rice [4]; [15]) | Barnyardgrass plant response rating (barnyardgrass [7]; [16]) | Sedge, Umbrella plant response rating [8, 15]
30: Blackgrass plant response rating (blackgrass; [14])
10: Surinam Grass plant response rating (Surinam grass; [12]) | Velvetleaf plant response rating (velvetleaf; [12]) | Blackgrass plant response rating (blackgrass; [12]) | Corn plant response rating (corn; [14]) | Crabgrass, Large plant response rating (large crabgrass; [14]) | Oat, Wild plant response rating (wild oat; [12]) | Barnyardgrass plant response rating (barnyardgrass [6]; [14]) | Foxtail, Giant plant response rating (0 to 100 scale) (giant foxtail; [11]) | Foxtail, Giant plant response rating (giant foxtail; [12]) | Wheat plant response rating (wheat; [12]) | Plant response rating, Morningglory (morningglory; [13])
75: Plant response rating, Ducksalad (ducksalad [3]; [17])
60: Plant response rating, Surinam Grass (Surinam grass; [13]) | Lambsquarters plant response rating (lambsquarters; [14]) | Pigweed plant response rating (pigweed; [12])
80: Plant response rating, Barnyardgrass (barnyardgrass [6]; [13]) | Pigweed plant response rating (0 to 100 scale) (pigweed; [11]) | Plant response rating, Sedge, Umbrella [8, 17]
20: Surinam Grass plant response rating (0 to 100 scale) (Surinam grass; [11]) | Surinam Grass plant response rating (Surinam grass; [14]) | Velvetleaf plant response rating (velvetleaf; [14]) | Corn plant response rating (0 to 100 scale) (corn; [11]) | Oat, Wild plant response rating (wild oat; [14]) | Barnyardgrass plant response rating (0 to 100 scale) (barnyardgrass [6]; [11]) | Foxtail, Giant plant response rating (giant foxtail; [14]) | Wheat plant response rating (wheat; [14]) | Morningglory plant response rating (morningglory; [14]) | Rice plant response rating (0 to 100 scale) (rice [9]; 125 g ai/ha, 0 = no effect, 100 = complete control)
65: Rice plant response rating (rice [4]; [16]) | Plant response rating, Barnyardgrass (barnyardgrass [7]; [17])
15: Ducksalad plant response rating (ducksalad [3]; [16]) | Rice plant response rating (rice [4]; 62 g ai/ha, scale 0 to 100)
100: Plant response rating, Velvetleaf (velvetleaf; [13]) | Lambsquarters plant response rating (0 to 100 scale) (lambsquarters; [11]) | Plant response rating, Lambsquarters (lambsquarters; [13]) | Plant response rating, Pigweed (pigweed; [13])
50: Lambsquarters plant response rating (lambsquarters; [12]) | Plant response rating, Rice (rice [9]; 500 g ai/ha, visual rating, 0 = no effect, 100 = complete control)
70: Plant response rating, Corn (corn; [13]) | Plant response rating, Crabgrass, Large (large crabgrass; [13]) | Plant response rating, Rice (rice [4]; [17]) | Pigweed plant response rating (pigweed; [14]) | Sedge, Umbrella plant response rating [8, 16] | Rice plant response rating (rice [10])
90: Ducksalad plant response rating (ducksalad [1]) | Sedge, Umbrella plant response rating [2] | Barnyardgrass plant response rating (barnyardgrass [5]) | Plant response rating, Foxtail, Giant (giant foxtail; [13])
0: Cocklebur plant response rating (0 to 100 scale) (cocklebur; [11]) | Cocklebur plant response rating (cocklebur; [12]) | Plant response rating, Cocklebur (cocklebur; [13]) | Ducksalad plant response rating (ducksalad [3]; 62 g ai/ha, scale 0 to 100) | Ducksalad plant response rating (ducksalad [3]; [15]) | Corn plant response rating (corn; [12]) | Crabgrass, Large plant response rating (large crabgrass; [12]) | Barnyardgrass plant response rating (barnyardgrass [6]; [12]) | Barnyardgrass plant response rating (barnyardgrass [7]; [18]) | Barnyardgrass plant response rating (barnyardgrass [7]; [15]) | Morningglory plant response rating (0 to 100 scale) (morningglory; [11]) | Morningglory plant response rating (morningglory; [12]) | Sedge, Umbrella plant response rating ([8]; 62 g ai/ha, scale 0 to 100)
40: Cocklebur plant response rating (cocklebur; [14]) | Crabgrass, Large plant response rating (0 to 100 scale) (large crabgrass; [11])

CCn1nc(C(C)(C)C)cc1C(=O)Nc1cccc(C(=O)N(C)C)c1 [Compound 49]
20: Cocklebur plant response rating (cocklebur; [19]) | Lambsquarters plant response rating (lambsquarters; [20]) | Corn plant response rating (corn; [19]) | Plant response rating, Crabgrass, Large (large crabgrass; [21])
60: Barnyardgrass plant response rating (barnyardgrass [7]; [22])
25: Rice plant response rating (rice [4]; [22])
90: Plant response rating, Rice (rice [4]; [17]) | Plant response rating, Pigweed (pigweed; [21])
10: Surinam Grass plant response rating (Surinam grass; [19]) | Surinam Grass plant response rating (Surinam grass; [20]) | Plant response rating, Surinam Grass (Surinam grass; [21]) | Velvetleaf plant response rating (velvetleaf; [20]) | Cocklebur plant response rating (cocklebur; [20]) | Corn plant response rating (corn; [20]) | Crabgrass, Large plant response rating (large crabgrass; [19]) | Crabgrass, Large plant response rating (large crabgrass; [20]) | Oat, Wild plant response rating (wild oat; [19]) | Barnyardgrass plant response rating (barnyardgrass [6]; [20]) | Pigweed plant response rating (pigweed; [20]) | Foxtail, Giant plant response rating (giant foxtail; [19])
30: Velvetleaf plant response rating (velvetleaf; [19]) | Barnyardgrass plant response rating (barnyardgrass [6]; [19]) | Plant response rating, Barnyardgrass (barnyardgrass [6]; [21]) | Pigweed plant response rating (pigweed; [19]) | Rice plant response rating (rice [10]; visual rating, 13 to 15 days)
15: Rice plant response rating (rice [4]; [18])
0: Plant response rating, Velvetleaf (velvetleaf; [21]) | Plant response rating, Cocklebur (cocklebur; [21]) | Blackgrass plant response rating (blackgrass; [19]) | Blackgrass plant response rating (blackgrass; [20]) | Ducksalad plant response rating (ducksalad [3]; [18]) | Plant response rating, Corn (corn; [21]) | Oat, Wild plant response rating (wild oat; [20]) | Foxtail, Giant plant response rating (giant foxtail; [20]) | Plant response rating, Foxtail, Giant (giant foxtail; [21]) | Wheat plant response rating (wheat; [19]) | Wheat plant response rating (wheat; [20]) | Morningglory plant response rating (morningglory; [19]) | Morningglory plant response rating (morningglory; [20]) | Plant response rating, Morningglory (morningglory; [21])
70: Plant response rating, Lambsquarters (lambsquarters; [21]) | Plant response rating, Rice (rice [4]; [23]) | Barnyardgrass plant response rating (barnyardgrass [5]; visual rating, 13 to 15 days) | Plant response rating, Barnyardgrass (barnyardgrass [7]; [23])
40: Plant response rating, Rice (rice [9]; 125 g ai/ha, 0 to 100 scale, 0 is no effect, 100 is complete control)
80: Ducksalad plant response rating (ducksalad [1]; visual rating, 13 to 15 days) | Sedge, Umbrella plant response rating ([2]; visual rating, 13 to 15 days) | Plant response rating, Ducksalad (ducksalad [3]; [23]) | Plant response rating, Ducksalad (ducksalad [3]; [17]) | Plant response rating, Barnyardgrass (barnyardgrass [7]; [17]) | Plant response rating, Sedge, Umbrella [8, 23] | Plant response rating, Sedge, Umbrella [8, 17]
45: Barnyardgrass plant response rating (barnyardgrass [7]; [18]) | Sedge, Umbrella plant response rating [8, 18] | Sedge, Umbrella plant response rating [8, 22]
50: Lambsquarters plant response rating (lambsquarters; [19]) | Ducksalad plant response rating (ducksalad [3]; [22])

— US20060069132A1, “Azolecarboxamide herbicides” (priority 2004, published 2006)
